Tests used:
Assay in all cases: relative viability (nuclei count vs DMSO), 5 days (fraction); higher = more cells survive
R406 + Navitoclax = compound: COc1cc(Nc2ncc(F)c(Nc3ccc4c(n3)NC(=O)C(C)(C)O4)n2)cc(OC)c1OC [R406] + CC1(C)CCC(c2ccc(Cl)cc2)=C(CN2CCN(c3ccc(C(=O)NS(=O)(=O)c4ccc(N[C@H](CCN5CCOCC5)CSc5ccccc5)c(S(=O)(=O)C(F)(F)F)c4)cc3)CC2)C1 [Navitoclax] (partner 0.5 µM)
Method in brief: (§1)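 Lung cancer cell lines in 1536-well plates were dosed by pin tool the day after seeding, either with one drug alone or with a fixed anchor-drug dose plus five library-drug doses (not always all listed) in √10 steps. After 5 days, cells were fixed and their nuclei stained in one step (final 0.05% Triton X-100, 1% formaldehyde, 1 ug/ml Hoechst), then counted on 4× images. Relative viability is the nuclei count in treated wells divided by that in vehicle wells. Values are medians of duplicate plates.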

R406 + Lapatinib = compound: COc1cc(Nc2ncc(F)c(Nc3ccc4c(n3)NC(=O)C(C)(C)O4)n2)cc(OC)c1OC [R406] + CS(=O)(=O)CCNCc1ccc(-c2ccc3ncnc(Nc4ccc(OCc5cccc(F)c5)c(Cl)c4)c3c2)o1 [Lapatinib] (partner 2 µM)
Method in brief: as §1

Daporinad + Luminespib = compound: O=C(/C=C/c1cccnc1)NCCCCC1CCN(C(=O)c2ccccc2)CC1 [Daporinad] + CCNC(=O)c1noc(-c2cc(C(C)C)c(O)cc2O)c1-c1ccc(CN2CCOCC2)cc1 [Luminespib] (partner 0.01 µM)
Method in brief: as §1

Daporinad + Dasatinib = compound: O=C(/C=C/c1cccnc1)NCCCCC1CCN(C(=O)c2ccccc2)CC1 [Daporinad] + Cc1nc(Nc2ncc(C(=O)Nc3c(C)cccc3Cl)s2)cc(N2CCN(CCO)CC2)n1 [Dasatinib] (partner 0.075 µM)
Method in brief: as §1

NCI-H1650
relative viability (R406 + Navitoclax; first compound 0.08 µM): 1.3
relative viability (R406 + Navitoclax; first compound 0.253 µM): 1.15
relative viability (R406 + Navitoclax; first compound 0.8 µM): 1.5
relative viability (R406 + Navitoclax; first compound 2.53 µM): 1.24
relative viability (R406 + Navitoclax; first compound 8 µM): 0.747
relative viability (R406 + Lapatinib; first compound 0.08 µM): 0.724
relative viability (R406 + Lapatinib; first compound 0.253 µM): 0.926
relative viability (R406 + Lapatinib; first compound 0.8 µM): 0.802
relative viability (R406 + Lapatinib; first compound 2.53 µM): 0.154
relative viability (R406 + Lapatinib; first compound 8 µM): 0.119
relative viability (Daporinad + Luminespib; first compound 0.0005 µM): 0.187
relative viability (Daporinad + Luminespib; first compound 0.001581 µM): 0.182
relative viability (Daporinad + Luminespib; first compound 0.005 µM): 0.182
relative viability (Daporinad + Luminespib; first compound 0.01581 µM): 0.196
relative viability (Daporinad + Dasatinib; first compound 0.0005 µM): 0.379
relative viability (Daporinad + Dasatinib; first compound 0.001581 µM): 0.366
relative viability (Daporinad + Dasatinib; first compound 0.005 µM): 0.325
relative viability (Daporinad + Dasatinib; first compound 0.01581 µM): 0.247

NCI-H2009
relative viability (R406 + Navitoclax; first compound 0.08 µM): 1.21
relative viability (R406 + Navitoclax; first compound 0.253 µM): 1.23
relative viability (R406 + Navitoclax; first compound 0.8 µM): 1.25
relative viability (R406 + Navitoclax; first compound 2.53 µM): 1.16
relative viability (R406 + Navitoclax; first compound 8 µM): 1.03
relative viability (R406 + Lapatinib; first compound 0.08 µM): 0.93
relative viability (R406 + Lapatinib; first compound 0.253 µM): 1.19
relative viability (R406 + Lapatinib; first compound 0.8 µM): 1.22
relative viability (R406 + Lapatinib; first compound 2.53 µM): 0.0976
relative viability (R406 + Lapatinib; first compound 8 µM): 0.261
relative viability (Daporinad + Luminespib; first compound 0.0005 µM): 1.02
relative viability (Daporinad + Luminespib; first compound 0.001581 µM): 1.08
relative viability (Daporinad + Luminespib; first compound 0.005 µM): 1
relative viability (Daporinad + Luminespib; first compound 0.01581 µM): 0.702
relative viability (Daporinad + Dasatinib; first compound 0.0005 µM): 0.295
relative viability (Daporinad + Dasatinib; first compound 0.001581 µM): 0.337
relative viability (Daporinad + Dasatinib; first compound 0.005 µM): 0.277
relative viability (Daporinad + Dasatinib; first compound 0.01581 µM): 0.22

LOU-NH91
relative viability (R406 + Navitoclax; first compound 0.08 µM): 0.715
relative viability (R406 + Navitoclax; first compound 0.253 µM): 0.701
relative viability (R406 + Navitoclax; first compound 0.8 µM): 0.752
relative viability (R406 + Navitoclax; first compound 2.53 µM): 0.318
relative viability (R406 + Navitoclax; first compound 8 µM): 0.313
relative viability (R406 + Lapatinib; first compound 0.08 µM): 0.785
relative viability (R406 + Lapatinib; first compound 0.253 µM): 0.792
relative viability (R406 + Lapatinib; first compound 0.8 µM): 0.734
relative viability (R406 + Lapatinib; first compound 2.53 µM): 0.564
relative viability (R406 + Lapatinib; first compound 8 µM): 0.537
relative viability (Daporinad + Luminespib; first compound 0.0005 µM): 0.331
relative viability (Daporinad + Luminespib; first compound 0.001581 µM): 0.364
relative viability (Daporinad + Luminespib; first compound 0.005 µM): 0.291
relative viability (Daporinad + Luminespib; first compound 0.01581 µM): 0.382
relative viability (Daporinad + Dasatinib; first compound 0.0005 µM): 0.544
relative viability (Daporinad + Dasatinib; first compound 0.001581 µM): 0.497
relative viability (Daporinad + Dasatinib; first compound 0.005 µM): 0.654
relative viability (Daporinad + Dasatinib; first compound 0.01581 µM): 0.745

NCI-H2405
relative viability (R406 + Navitoclax; first compound 0.08 µM): 0.823
relative viability (R406 + Navitoclax; first compound 0.253 µM): 0.844
relative viability (R406 + Navitoclax; first compound 0.8 µM): 0.928
relative viability (R406 + Navitoclax; first compound 2.53 µM): 0.691
relative viability (R406 + Navitoclax; first compound 8 µM): 0.156
relative viability (R406 + Lapatinib; first compound 0.08 µM): 0.98
relative viability (R406 + Lapatinib; first compound 0.253 µM): 1.14
relative viability (R406 + Lapatinib; first compound 0.8 µM): 1.13
relative viability (R406 + Lapatinib; first compound 2.53 µM): 0.269
relative viability (R406 + Lapatinib; first compound 8 µM): 0.234
relative viability (Daporinad + Luminespib; first compound 0.0005 µM): 0.853
relative viability (Daporinad + Luminespib; first compound 0.001581 µM): 0.884
relative viability (Daporinad + Luminespib; first compound 0.005 µM): 1.01
relative viability (Daporinad + Luminespib; first compound 0.01581 µM): 0.723
relative viability (Daporinad + Dasatinib; first compound 0.0005 µM): 0.168
relative viability (Daporinad + Dasatinib; first compound 0.001581 µM): 0.226
relative viability (Daporinad + Dasatinib; first compound 0.005 µM): 0.231
relative viability (Daporinad + Dasatinib; first compound 0.01581 µM): 0.252

Reference: the supplement of paper PMC10307832
